Assay results: patent EP4509511A1, “SUBSTITUTED SPIRO-ISOXAZOLINYL LACTAMS, SALTS THEREOF AND THEIR USE AS HERBICIDALLY ACTIVE SUBSTANCES” (Bayer Aktiengesellschaft, priority 2023, dated 2025)

Experiments:
SETVI [1] = test: Herbicidal post-emergence action - Part I; type: in vivo, Setaria viridis; conditions: one-leaf stage, rated visually after about 3 weeks vs untreated controls
Procedure: Seeds of mono- and dicotyledonous weed plants were placed in plastic pots in sandy loam soil (doubly sown with in each case one species of mono- or dicotyledonous weed plants per pot), covered with soil and cultivated in a greenhouse under controlled growth conditions. 2 to 3 weeks after sowing, the test plants were treated at the one-leaf stage. The compounds of the invention, formulated in the form of wettable powders (WP) or as emulsion concentrates (EC), were applied onto the green parts of the plants as aqueous suspension or emulsion with addition of 0.5% additive at a water application rate of 600 liters per hectare (converted). After the test plants had been kept in the greenhouse under optimum growth conditions for about 3 weeks, the activity of the preparations was rated visually in comparison to untreated controls. For example, 100% activity = the plants have died, 0% activity = like control plants. Tables B1 to B12, below, show the effects of selected compounds of the general formula (I) according to table 1 on various harmful plants and an application rate corresponding to 1280 g/ha or below obtained by the experimental procedure mentioned above. Table B1a: post-emergence activity at 1280g/ha against ABUTH in %

ECHCG [2] = test: Herbicidal post-emergence action - Part II; type: in vivo, Echinochloa crus-galli; conditions: 320 g/ha; Table E3b
Text: Seeds of mono- and dicotyledonous weed plants and crop plants were sown, in plastic or organic planting pots, in sandy loam, covered with soil and grown in a greenhouse under controlled growth conditions. 2 to 3 weeks after sowing, the test plants were sprayed in the single-leaf stage. The compounds according to the invention, formulated in form of wettable powders (WP) or as emulsifiable concentrates (EC), were sprayed onto the green plant parts as aqueous suspension or emulsion, with the addition of 0.5% of an additive, at an application rate of 600 1 of water/ha (converted). The test plants were placed in the greenhouse for ca. 3 weeks under optimum growth conditions, and then the effect of the preparations was assessed visually in comparison with untreated controls (herbicidal effect in percent (%): 100% effect = plants have died off, 0% effect = as control plants). Tables E1 to E10 below show the effects of selected compounds of the general formula (I) according to table 1 on various harmful plants and an application rate corresponding to 320 g/ha or below obtained by the experimental procedure mentioned above. Table E1a: post-emergence activity at 5g/ha against ABUTH in %

POLCO = test: Herbicidal pre-emergence action - Part II; type: in vivo, Polygonum convolvulus; conditions: 320 g/ha; Table C9
Text: (§1) Seeds of mono- and dicotyledonous weed plants and crop plants were sown, in plastic or organic planting pots, in sandy loam and covered with soil. The compounds according to the invention, formulated in the form of wettable powders (WP) or as emulsifiable concentrates (EC), were applied to the surface of the covering soil as aqueous suspension or emulsion, with the addition of 0.5% of an additive, at an application rate of 600 1 of water/ha (converted). Following treatment, the pots were placed in a greenhouse and kept under optimum growth conditions for the test plants. The visual grading of the damage to the test plants was carried out after ca. 3 weeks in comparison to untreated controls (herbicidal effect in percent (%): 100% effect = plants have died off, 0% effect = as control plants). Tables C1 to C12 below show the effects of selected compounds of the general formula (I) according to table 1 on various harmful plants and an application rate corresponding to 320 g/ha or below obtained by the experimental procedure mentioned above. Table C1: pre-emergence activity at 320g/ha against ABUTH in %

ABUTH [3] = test: Herbicidal pre-emergence action - Part II; type: in vivo, Abutilon theophrasti; conditions: visual grading after ca. 3 weeks vs untreated controls
Text: as §1

AVEFA = test: Herbicidal pre-emergence action - Part II; type: in vivo, Avena fatua; conditions: 320 g/ha; Table C4
Text: as §1

ABUTH [4] = test: Herbicidal post-emergence action - Part II; type: in vivo, Abutilon theophrasti; conditions: 320 g/ha; Table E1c
How it was run: (§2)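 Post-emergence greenhouse test: weeds and crops in sandy loam sprayed at single-leaf stage, 2–3 weeks after sowing, with WP or EC formulations in water plus 0.5% additive at 600 l water/ha. Rates 320 g/ha or below. Visual rating after ca. 3 weeks versus untreated controls, % effect (100% = plants dead).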

VERPE = test: Herbicidal post-emergence action - Part II; type: in vivo, Veronica persica
How it was run: as §2

ABUTH [5] = test: Herbicidal post-emergence action - Part I; type: in vivo, Abutilon theophrasti; conditions: 1280 g/ha, one-leaf stage, rated visually after about 3 weeks vs untreated controls
How it was run: (§3)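 Greenhouse weeds grown in sandy loam were sprayed post-emergence at the one-leaf stage, 2-3 weeks after sowing. Compounds were applied as WP or EC in water with 0.5% additive at 600 L/ha, at 1280 g/ha or below. Visual damage was rated after about 3 weeks versus untreated plants (0-100%).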

ECHCG [6] = test: Herbicidal post-emergence action - Part I; type: in vivo, Echinochloa crus-galli; conditions: one-leaf stage, rated visually after about 3 weeks vs untreated controls
How it was run: as §3

DIGSA = test: Herbicidal pre-emergence action - Part I; type: in vivo, Digitaria sanguinalis; conditions: visual grading after ca. 3 weeks vs untreated controls
How it was run: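 Seeds are sown and covered with sandy loam soil, one monocot and one dicot weed species per pot. The test compound (WP or EC, 0.5% additive, 600 l/ha) is then applied to the soil surface at up to 1280 g/ha. Pots are kept in a greenhouse and injury is rated visually after ca. 3 weeks.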

SETVI [7] = test: Herbicidal post-emergence action - Part II; type: in vivo, Setaria viridis; conditions: 320 g/ha; Table E7c
How it was run: as §2

VIOTR = test: Herbicidal post-emergence action - Part II; type: in vivo, Viola tricolor; conditions: 320 g/ha; Table E9c
How it was run: as §2

MATIN = test: Herbicidal pre-emergence action - Part II; type: in vivo, Matricaria inodora; conditions: 320 g/ha; Table C8
Text: as §1

Structure (SMILES): Cc1ccsc1C1=NOC2(CCCN(Cc3c(F)cccc3F)C2=O)C1 (racemic) [Compound I-2]
- post-emergence activity at 80g/ha against SETVI in % (SETVI [1]; 80 g/ha): 90%
- post-emergence activity at 320g/ha against SETVI in % (SETVI [1]; 320 g/ha): 90%
- post-emergence activity at 1280g/ha against SETVI in % (SETVI [1]; 1280 g/ha): 90%
- post-emergence activity against ECHCG (ECHCG [2]): 90%
- pre-emergence activity against POLCO (POLCO): 80%
- pre-emergence activity at 320g/ha against ABUTH in % (ABUTH [3]): 80%
- pre-emergence activity against AVEFA (AVEFA): 80%
- post-emergence activity against ABUTH (ABUTH [4]): 80%
- post-emergence activity against VERPE (VERPE; 80 g/ha, Table E8c): 90%
- post-emergence activity against VERPE (VERPE; 320 g/ha, Table E8d): 90%
- post-emergence activity at 1280g/ha against ABUTH in % (ABUTH [5]): 90%
- post-emergence activity at 320g/ha against ECHCG in % (ECHCG [6]; 320 g/ha): 90%
- post-emergence activity at 1280g/ha against ECHCG in % (ECHCG [6]; 1280 g/ha): 90%
- pre-emergence activity at 320g/ha against DIGSA in % (DIGSA; 320 g/ha): 100%
- pre-emergence activity at 1280g/ha against DIGSA in % (DIGSA; 1280 g/ha): 100%
- post-emergence activity against SETVI (SETVI [7]): 90%
- post-emergence activity against VIOTR (VIOTR): 80%
- pre-emergence activity against MATIN (MATIN): 90%
